Reference: patent US8609645B2, “Pharmaceutical formulation” (Intervet Inc., priority 2004, dated 2013)

Tests used:
fungi = experiment: Antifungal activity compared with traditional veterinary antifungal compounds; details: fold versus clotrimazole, miconazole, nystatin
Text: The antifungal drug preferably is posaconazole, a drug with 10-400× the antifungal activity of traditional antifungal compounds used in veterinary medicine such as clotrimazole, miconazole, nystatin. It will be the first use of a triazole antifungal in veterinary medicine. The combination for this proposed otic product is new. The product requires only one application per day. In summary, the justification for use of the centralized procedure is: • Novel antibiotic in an otic preparation with none of the ototoxicity of the aminoglycosides often used in such products; • Novel, corticosteroid, with a better safety profile when compared other corticosteroids used in otic preparations; • Potent triazole anti-fungal drug; • Novel combination of the three drugs described above; • Single daily application.

[1] = cited from earlier work
[2] = cited from earlier work; remark: listed apart in the source

Row | Compound | antifungal activity relative to traditional antifungal compounds (fungi) | solubility in acetone ([1]; acetone) | solubility in chloroform ([1]; chloroform) | solubility in ethanol ([1]; ethanol) | solubility in isopropanol ([1]; isopropanol) | solubility in methanol ([1]; methanol) | solubility in tetrahydrofuran ([1]; tetrahydrofuran) | solubility in water ([1]; water) | partition coefficient between octanol and water [2]
1 | CC[C@@H]([C@H](C)O)n1ncn(-c2ccc(N3CCN(c4ccc(OC[C@@H]5CO[C@@](Cn6cncn6)(c6ccc(F)cc6F)C5)cc4)CC3)cc2)c1=O [posaconazole] | 10-400 × | – | – | – | – | – | – | – | –
2 | C[C@@H]1C[C@H]2[C@@H]3CCC4=CC(=O)C=C[C@]4(C)[C@@]3(Cl)[C@@H](O)C[C@]2(C)[C@@]1(OC(=O)c1ccco1)C(=O)CCl [Mometasone Furoate, 9,21-Dichloro-11(beta),17-dihydroxy-16(alpha)-methylpregna-1,4-diene-3,20-dione 17-(2 Furoate)] | – | soluble | soluble | slightly soluble | slightly soluble | slightly soluble | freely soluble | practically insoluble | greater than 5000
